“Also recorded” adds a separate entry of the source.
What was measured:
[1] = humans; cited from earlier work
[2] = tested on: phospho-COXIV-1 (p-S58) in aged monkey dlPFC; assay: Immunoblot of phospho-COXIV-1 (p-S58) in dlPFC after chronic daily treatment; format: in vivo; conditions: 0.001-0.1 mg/kg daily for 6 mos, n=1, pilot study
Protocol: FIG. 19 is a set of immunoblots and a bar graph illustrating that chronic daily treatment with the α2A-AR agonist, guanfacine, reduces abnormal phosphorylation of COXIV in the aged monkey dlPFC.
All samples were run on Invitrogen Novex 4-12% Tris-glycine gels using the Biorad Western blotting system. Lanes were transferred onto […] Nitrocellulose (Biorad) and incubated overnight in primary antibodies: anti PDE4A (Abcam, ab14607; 1:1000), anti-GAPDH (Advanced Immunochemical, mAb 6C5; 1:5000), anti-PDE4B (Pearson et al., 1985, Proc. Natl. Acad. Sci. USA 82:4531), anti-β-tubulin (T2200, Sigma; 1:5000), anti-PSD95 (EMD Millipore, mAb N68; 1:5000), anti-pSer214 (EMD Millipore, AB6972; 1:1000) for all experiments, except the primary culture experiment, where Abcam 4846 was used due to discontinuation of the previous antibody, anti-pThr231 (Pierce, OPA1-031556; 1:1000), anti-tau (clone 5E2, EMD Millipore, 05-348; 1:500-1:1000). Primary antibodies were labeled using the appropriate Licor IRDye 680 or 800 secondary antibody, and visualized using a Licor Odyssey Infra Red Scanner. Bands were quantified using Odyssey Software, and statistics performed by Student's T-test, unless stated otherwise.

aged monkeys (18-28 yrs) = assay: Working memory performance after chronic daily treatment; format: in vivo, monkey
[3] = tested on: p-S214 tau in aged monkey dlPFC; assay: Immunoblot of p-S214 tau in dlPFC after chronic daily treatment; format: in vivo; conditions: 0.001-0.1 mg/kg daily for 6 mos, n=1, pilot study
Protocol: FIG. 18 is a set of immunoblots and a graph illustrating the finding that chronic daily treatment with the α2A-AR agonist, guanfacine, reduces abnormal phosphorylation of tau in the aged monkey dlPFC.
Heat-stable tau was prepared as detailed in Bussière et al., 2003, J Comp Neurol. 463:281. Small blocks of dlPFC were surgically removed and flash-frozen before perfusion of subjects. A piece was placed into ice-cold homogenization buffer (10 mM Tris pH 7.4, 140 mM NaCl, 2 mM EGTA, plus protease and phosphatase inhibitors; 400 μL per 100 mg tissue) and homogenized by sonication. A small fraction was reserved for protein quantification for gel loading. NaCl was added to 250 mM, followed by addition of β-mercaptoethanol (14.3 M, Sigma) to 5% total volume. Samples were vortexed and heated to 100° C. for 15 min, vortexed, then cooled on ice for 30 min. Lysates were cleared by centrifugation at 16,100×g for 10 min at 4° C., and the supernatant used for immunoblotting. Band intensities were normalized by total heat-stable protein, quantified by measurement of major band intensities on a Coomassie stained gel (FIG. 5C).
All samples were run on Invitrogen Novex 4-12% Tris-glycine gels using the Biorad Western blotting system. […] Bands were quantified using Odyssey Software, and statistics performed by Student's T-test, unless stated otherwise.

[4] = tested on: pS214-tau in mouse primary cortical neurons; assay: pSer214 phosphorylation assay in cultured neurons (immunoblot); format: cell-based
Protocol: FIG. 15 is a series of immunoblots illustrating the effect of PDE4 inhibition on phosphorylation of tau at Serine 214. Mouse primary cortical neurons between 7-11 days in vitro were preincubated with 10 μM rolipram or vehicle for 10 min, before being subjected to treatment with varying nM concentrations of forskolin (as indicated). Following this treatment, cells were lysed in 1% SDS with protease and phosphatase inhibitors (Complete Mini, Roche and PhosStop, Roche), and heated to 70° C. to prevent further phosphatase activity. Samples were quantified by BCA assay, and analyzed by imunoblotting. Blots were labeled for pSer214-tau (Abcam, 4846), total tau (EMD Millipore, clone 5E2) and GAPDH (Advanced Immunochemical, mAb 6C5). Bands were quantified using Image J, and total tau signals were normalized by GAPDH. p-Tau signals were then normalized to total tau signals.
Primary cortical neurons were prepared from P1 C57Bl/6 mice. One day prior to neuron production, plates were coated overnight with Poly-D-Lysine solution (Sigma). […]
Assays were performed on primary cortical neurons between 7-11 days in vitro. […] Samples were quantified by BCA assay, and analyzed by immunoblotting. In this instance, band intensity was quantified using ImageJ, and significance assessed by 2 way ANOVA using Graph Pad Prism software.

Question: What does the source list for `NC(N)=NC(=O)Cc1c(Cl)cccc1Cl` [guanfacine, N-(diaminomethylidene)-2-(2,6-dichlorophenyl)acetamide]?
Answer: safety of long-term treatment [1]: proven safe for long-term treatment; phospho-COXIV-1 (p-S58) expression in dlPFC compared to chronic vehicle [2]: reduces the expression of p-tau and phospho-COXIV-1; also recorded: decreasing phospho-COXIV-1; also recorded: decreased phospho-COXIV-1 expression; working memory / cognitive performance compared to baseline (aged monkeys (18-28 yrs); 0.001 or 0.01 mg/kg daily for 6 months, n=4 or 5): enhances cognitive performance; also recorded: significantly improved working memory performance; working memory / cognitive performance compared to baseline (aged monkeys (18-28 yrs); highest dose 0.1 mg/kg daily for 6 months, 0.1 mg/kg): produced improvement in some monkeys but not in others; also recorded: highly variable and thus not significant; p-S214 tau expression in dlPFC compared to chronic vehicle [3]: reduces the expression of p-tau; also recorded: dose-related reduction in phosphorylated tau at the pS214 site; also recorded: dose-related reduction in p-S214 expression

Question: For `COc1ccc(C2CNC(=O)C2)cc1OC1CCCC1` (stereo not shown) [rolipram], which “forskolin-induced increase in pS214-tau” value ([4]; 10 μM with forskolin, F(1,60)=8.882, p=0.0042) is on record?
Answer: significantly increased

Question: And the pS214-tau level ([4]; PDE4 inhibition, FIG. 3G)?
Answer: increased pS214-tau
